# From patent US7989165B2, “Tape stripping methods for analysis of skin disease and pathological skin state” (DermTech International, priority 2004, dated 2011)
# Several values for one entry are separate records, joined by “and”; a condition that tells them apart may be missing. Identical values can stand only once.
# Tests used:
# Type in all cases: in vivo, human
# GAPDH mRNA = assay: RT-PCR of GAPDH mRNA in tape-stripped psoriatic lesions during Enbrel treatment; details: week 8 of treatment
# Experimental: (§1) Patients were treated with Enbrel™ (Etanercept) over a period of months. Both before treatment commenced (week 0) and at various time points during treatment, a lesion was tape stripped using the synthetic rubber-based adhesive MA70 (Adhesives Research) on a polyurethane film. Adhesive strips were manufactured as circles of 17 mm diameter. Skin sites were sequentially stripped with 4 individual tapes, with each tape applied and removed once. The RNA isolated from the adherent cells on all 4 tapes (from one site) was pooled into one sample. Quantitation was by quantitative RT-PCR using the comparative method with β-actin mRNA as the internal normalizing mRNA standard and calibration achieved by using population average values for ΔCt in uninvolved skin of psoriatic subjects (Table 1).
# TNFα mRNA = assay: RT-PCR of TNFα mRNA in tape-stripped psoriatic lesions during Enbrel treatment; details: week 8 of treatment
# Experimental: as §1
# IFNγ mRNA = assay: RT-PCR of IFNγ mRNA in tape-stripped psoriatic lesions during Enbrel treatment; details: week 8 of treatment
# Experimental: as §1
# IL-12B mRNA = assay: RT-PCR of IL-12B mRNA in tape-stripped psoriatic lesions during Enbrel treatment; details: week 8 of treatment
# Experimental: as §1
# IL-23A mRNA = assay: RT-PCR of IL-23A mRNA in tape-stripped psoriatic lesions during Enbrel treatment; details: week 8 of treatment
# Experimental: as §1
# psoriasis = assay: Clinical assessment of psoriasis (NPF Score) during Enbrel treatment; set-up: NPF Score: scale not given here
# Experimental: as §1
# Rather than calibrate the lesion samples to uninvolved skin of each patient, we have chosen to calibrate to population average values to gain a fold-change relative to non-psoriatic skin. The results of calibrating to each patient's uninvolved skin values were virtually identical (data not shown). […] Thus, positive changes in ΔCt values of these specific mRNAs are negatively correlated with the change from baseline at week 8 in NPF scores. […] In order to assess the significance this observation, the AC, and NPF data in Table 10 was analyzed.
# [1] = psoriatic lesion, tape-harvested RNA, relative to β-actin mRNA, one value per patient (P2-P7)
substance,measurement,setting,value
Enbrel,"Fold Change (Pop-UIS), GAPDH mRNA","GAPDH mRNA; GAPDH/β-actin mRNA ratio in lesion relative to population average of uninvolved skin, per patient",2.04 fold and 1.69 fold and 1.59 fold and 1.40 fold and 1.77 fold and 2.07 fold
same,"ΔCt (Lesion), GAPDH mRNA",GAPDH mRNA; [1],1.04 and 1.31 and 1.4 and 1.58 and 1.25 and 1.02
same,"Fold Change (Pop-UIS), TNFα mRNA","TNFα mRNA; TNFα/β-actin mRNA ratio in lesion relative to population average of uninvolved skin, per patient",10.06 fold and 16.56 fold and 5.66 fold and 9.00 fold and 11.47 fold and 17.27 fold
same,"ΔCt (Lesion), TNFα mRNA",TNFα mRNA; [1],4.99 and 4.27 and 5.82 and 5.15 and 4.8 and 4.21
same,"Fold Change (Pop-UIS), INFγ mRNA","IFNγ mRNA; INFγ/β-actin mRNA ratio in lesion relative to population average of uninvolved skin, per patient",0.59 fold and 48.17 fold and 1.49 fold and 8.17 fold and 2.58 fold and 3.25 fold
same,"ΔCt (Lesion), INFγ mRNA",IFNγ mRNA; [1],11.27 and 4.91 and 9.92 and 7.47 and 9.13 and 8.8
same,"Fold Change (Pop-UIS), IL-12B mRNA","IL-12B mRNA; IL-12B/β-actin mRNA ratio in lesion relative to population average of uninvolved skin, per patient",0.51 fold and 9.45 fold and 5.31 fold and 11.24 fold and 27.86 fold and 105.42 fold
same,"ΔCt (Lesion), IL-12B mRNA",IL-12B mRNA; [1],12.48 and 7.35 and 9.09 and >8.01 and 6.7 and 4.78
same,"Fold Change (Pop-UIS), IL-23A mRNA","IL-23A mRNA; IL-23A/β-actin mRNA ratio in lesion relative to population average of uninvolved skin, per patient",5.43 fold and 24.25 fold and 5.70 fold and 9.99 fold and 17.03 fold and 18.64 fold
same,"ΔCt (Lesion), IL-23A mRNA",IL-23A mRNA; [1],6.59 and 4.85 and 6.52 and 5.71 and 4.94 and 4.81
same,NPF Score,"psoriasis; National Psoriasis Foundation Score at week 8 of treatment, one value per patient (P2-P7)",10.7 (5×) and 10.3 (5×) and 16.7 (5×) and 18.7 (5×) and 11.7 (5×) and 12 (5×)
same,change in NPF score from baseline to week 8,"psoriasis; psoriatic patients, 8 weeks of treatment, negative indicates improvement in disease",negative
